This is an account of results in patent publication US9700024B2 (priority 2010, dated 2017).

“Also recorded” adds a separate entry of the source.

For data set [1], the system named is rat model of preeclampsia. The following applies: Hypertension 2007; 50(4): 686-92; cited from earlier work.
Data set [2] concerns human umbilical vein endothelial cells (HUVECs). Briefly: In vitro expression of PIGF as an effect of statin, HUVEC. It is filed as cell-based. Conditions: statin 1 μM or 10 μM, 24 hours. The protocol:
For HUVEC cells, each of the stock solutions was added upon dilution to 1 μM or 10 μM in a culture medium.
HUVEC and HEK293T cells were plated at 2×10^4 and 1×10^5 cells per well in 6-well plates, respectively, and incubated under 5% CO2 at 37° C. After 24 hours, the medium was replaced with a fresh medium containing or not containing a statin. The media collected after another 24 hours were centrifuged at 1,000×g, and the supernatants were subjected to ELISA.

The test system of another data set is mVEGF. Kind of data set: mVEGF concentration in the mother's blood by ELISA. The class given is in vivo, mouse. Conditions: E18.5; LV-hsFLT1 model; pravastatin every day from E7.5; n=6. The protocol:
(§1) Blood samples were allowed to clot and were centrifuged to prepare serum samples. Concentrations of hsF1T1, mVEGF, and mPIGF were measured with ELISA kits, according to the manufacturer's instructions (R&D system). Aspartate aminotransferase (AST) and alanine transaminase (ALT) were measured by Fuji dry-chem 3500V and dri-chem slides (Fuji Film.co). Urine samples were collected at E18.5. Urine albumin and creatinine concentrations were measured by using the Fuji dry-chem 3500V and dri-chem slides (Fuji Film.co, Tokyo Japan).
(In general: An ELISA detects its analyte on a solid surface through an enzyme-linked reagent.)

The subject of a further data set is hsFLT1. Kind of data set: hsFLT1 concentration in the mother's blood by ELISA. The following applies: E18.5; LV-hsFLT1 100 ng-p24/mL; pravastatin every day from E7.5 where given; mean±s.e.m. It is filed as in vivo, mouse. The protocol: as §1
For data set [3], the system named is pups of the pravastatin-treated female animals. Kind of data set: Deformity in pups of treated female animals.
Data set [4] deals with mPIGF. Kind of data set: mPIGF concentration in the mother's blood by ELISA, LV-hsFLT1 model. It is filed as in vivo, mouse. The following applies: E18.5, pravastatin every day from E7.5, n=7. The protocol:
as §1

In another data set the test system is wild-type pregnant mice. Conditions: normal pregnant animals without LV-hsFLT1.
Data set [5] relates to pregnancy-induced hypertension syndrome model mice (placenta-specific hsFLT1 expression). Kind of data set: Urinary albumin/creatinine (proteinuria) in model mice. The class given is in vivo, mouse. The following applies: urine at E18.5; average ± S.E.M. The protocol:
as §1

Data set [6] has as its system mPIGF. Briefly: Circulating mPIGF in wild-type female mice not treated with viral vector. It is filed as in vivo, mouse. The protocol:
Pravastatin sodium salt (Cayman Chemical) was dissolved in 100% ethanol to produce a stock solution (1 mg/mL), which was diluted by sterile PBS (25 μg/mL) before use and intraperitoneally injected every day starting from E7.5 to E18.5 at 5 μg/animal unless specifically instructed otherwise.
as §1

Data set [7] concerns hypertension induced by sFLT1 expressed by an adenovirus. The following applies: Hypertension 2009; 54(5): 1129-35; cited from earlier work.

Procedure for wild-type pregnant mice: Blood pressure was measured by the tail-cuff method (Softron Ltd, Tokyo, Japan). The mice were lightly fixed in a small cage without anesthesia, and their blood pressure was measured after their behavior, heart rate, and blood pressure stabilized. After stabilization, both systolic and diastolic blood pressures were recorded at least five times until the stabilization became unstable. Mean values of both the systolic and diastolic blood pressures measured as mentioned above were used for further statistical analysis.

Take VEGF: in data set [1], the hypertension entry is given as “improves hypertension”.
As to `CC(C)c1c(C(=O)Nc2ccccc2)c(-c2ccccc2)c(-c2ccc(F)cc2)n1CC[C@@H](O)C[C@@H](O)CC(=O)O` [atorvastatin, (−)-Monocalcium bis {(3R,5R)-7-[2-(4-fluorophenyl-5-isopropyl-3-phenyl-4-phenylcarbamoyl-1H-pyrrol-1-yl]-3,5-dihydroxyheptanoate}trihydrate], the “PIGF production in supernatant” value in data set [2] is “induced PGF production; also recorded: induce PIGF production”.
With `CC[C@H](C)C(=O)O[C@H]1C[C@H](O)C=C2C=C[C@H](C)[C@H](CC[C@@H](O)C[C@@H](O)CC(=O)O)[C@H]21` [pravastatin, Monosodium(3R,5R)-3,5-dihydroxy-7-{(1S,2S,6S,8S,8aR)-6-hydroxy-2-methyl-8-[(2S)-2-methylbutanoyloxy]-1,2,6,7,8,8a-hexahydronaphthalen-1-yl}heptanoate], the “mVEGF protein level in maternal blood” value with mVEGF turned out to be 35.5 ± 13.6 pg/mL. For the same molecule, in the data set with hsFLT1, the “circulating hsFLT1 concentration in the mother's blood” value was determined as 0.99 ± 0.65 ng/mL. Further, in data set [3], the “deformity in the pups” value is listed as “did not notice any deformity”. For the same molecule, the “mPIGF concentration in maternal blood” value in the data set with mPIGF [4] was 116.6 ± 13.2 pg/mL. Also, in the data set with wild-type pregnant mice, the “blood pressure / hypotensive effect” value is on record as “not hypotensive; also recorded: did not change”. For the same molecule, in data set [5], the “ALBUMIN/CREATININE AVERAGE” value was 4.06 ± 0.38. Moreover, the “circulating mPIGF” value in the data set on mPIGF [6] (wild-type non-pregnant female animals, n=5) turned out to be 29.8 ± 13.2 pg/mL; in the data set on mPIGF [6] (wild-type pregnant female animals, n=4), 152.0 ± 19.7 pg/mL.

B1: recombinant PIGF: recombinant placental growth factor 2 (literature) (protein)
chain: VHSQGALSAGNNSTEVEVVPFNEVWGRSYCRPMEKLVYILDEYPDEVSHIFSPSCVLLSRCSGCCGDEGLHCVPIKTANITMQILKIPPNRDPHFYVEMTFSQDVLCECRPILETTKAERRKTKGKRKRSRNSQTEEPHP
For the molecule B1, the hypertension result in data set [7] was “improves hypertension”.
